Source: patent publication US20160340286A1, “CLOSTRUBINS” (LEIBNIZ-INSTITUT FÜR NATURSTOFF-FORSCHUNG UND …, priority 2014, published 2016)
≈ marks a conversion by molar mass, not a printed value. Read-outs that look alike come from different tables or passages of the source.

Assays:
Assay type in all cases: cell-based
[1] = system: Mycobacterium aurum; test: anti-mycobacterial activity, MIC; conditions: Mycolicibacterium aurum
Description: (§1) The activity and more specifically the bioactivity of the compounds according to the present invention can be assessed using appropriate assays known to those skilled in the art, e.g. in vitro or in vivo assays. For instance, the antimicrobial activity may be determined using a standardized antibiotic assay^[1], and the antiproliferative and/or cytotoxic activity may be determined via a standardized assay as described in reference.
(§2) The antibiotic activity of clostrubin A was tested using a standardized antibiotic assay^[1]. […]. A similar antimicrobial activity as against MRSA was observed against Mycobacterium smegmatis (M smegmatis), Mycobacterium aurum (M aurum), Mycobacterium vaccae (M vaccae) and Mycobacterium fortuitum (M fortuitum)—see, Table 3.

[2] = system: Mycobacterium fortuitum; test: anti-mycobacterial activity, MIC; conditions: Mycolicibacterium fortuitum
Description: as §1, §2

[3] = system: Mycobacterium vaccae; test: anti-mycobacterial activity, MIC; conditions: Mycolicibacterium vaccae
Description: as §1, §2

[4] = system: Mycobacterium smegmatis; test: anti-mycobacterial activity, MIC; conditions: Mycolicibacterium smegmatis
Description: as §1, §2

[5] = system: Escherichia coli; test: standardized antibiotic assay, MIC, Ec; conditions: for MIC: Escherichia coli (Gram-negative)
Description: as §1, §2

[6] = system: Bs; test: standardized antibiotic assay, MIC, Bs
Description: as §1, §2

[7] = system: vancomycin-resistant enterococci (VRE); test: standardized antibiotic assay, MIC, VRE; conditions: Enterococcus
Description: as §1, §2

[8] = system: methicillin-resistant Staphylococcus aureus (MRSA); test: standardized antibiotic assay, MIC, MRSA
Description: as §1, §2

[9] = system: HUVEC; test: antiproliferative effect, standardized assay
Source text: as §1
(§3) Antiproliferative and cytotoxic activity of clostrubin A was tested in a standardized assay^[2].

[10] = system: K-562; test: antiproliferative effect, standardized assay; conditions: Homo sapiens, K562
Source text: as §1, §3

[11] = system: HeLa; test: cytotoxicity, standardized assay; conditions: summary of Table 4 (HeLa)
Source text: as §1, §3

[12] = cytotoxicity, standardized assay; conditions: human, HeLa cells
Source text: as §1, §3

[13] = system: Clavibacter michiganensis ssp. sepedonicus; test: activity against potato pathogens, MIC; conditions: read-out: MIC Clavibacter michiganensis ssp. sepedonicus
[14] = system: Streptomyces scabies; test: microbe, parasite or virus in culture; conditions: Streptomyces scabiei; potato scab pathogen
Description: (§4) The antimicrobial activity of clostrubin A (1) and clostrubin B (2) against the serious potato pathogens Bacillus pumilus (causing potato soft rot), Clavibacter michiganensis ssp. sepedonicus (causing potato ring rot), and Streptomyces scabies (causing potato scab) was tested.

[15] = system: Bacillus pumilus; test: microbe, parasite or virus in culture; conditions: potato soft rot pathogen
Description: as §4

Row | Compound | MIC [1] | MIC [2] | MIC [3] | MIC [4] | MIC [5] | MIC [6] | MIC ([7]; read-out: MIC VRE) | MIC ([8]; read-out: MIC MRSA) | antibiotic activity against Escherichia coli (in words) ([5]; Gram-negative organism) | GI50 ([9]; Homo sapiens, HUVEC) | antiproliferative activity (in words) ([9]; summary of Table 4 (HUVEC, K-562)) | GI50 [10] | cytotoxic activity (in words) [11] | CC50 [12] | MIC [13] | MIC [14] | MIC [15] | MIC ([7]; read-out: minimum inhibitory concentration (MIC) VRE) | MIC ([8]; read-out: minimum inhibitory concentration (MIC) MRSA)
1 | O=C(O)c1cn(C2CC2)c2cc(N3CCNCC3)c(F)cc2c1=O [Cip, ciprofloxacin, reference compound] | 0.3 µM (≈ 0.0994 µg/mL) | 0.6 µM (≈ 0.199 µg/mL) | 1.2 µM (≈ 0.398 µg/mL) | 4.71 µM (≈ 1.56 µg/mL) | 0.01 µM (≈ 0.00331 µg/mL) | 0.08 µM (≈ 0.0265 µg/mL) | 2.3 µM | 37 µM |  |  |  |  |  |  |  |  |  |  | 
2 | CC(=O)c1ccc2c(c1O)c(O)c1c3c(c(O)cc(C)c32)C(=O)c2c(O)cc(C)cc2-1 [Compound 1, clostrubin A] | 0.12 µM (≈ 0.0497 µg/mL) | 0.12 µM (≈ 0.0497 µg/mL) | 0.12 µM (≈ 0.0497 µg/mL) | 0.48 µM (≈ 0.199 µg/mL) | > 60 µM | 0.075 µM (≈ 0.0311 µg/mL) | 0.97 µM | 0.12 µM | ineffective | 1.2 µM | moderate | 2.66 µM | moderate | 1.69 µM | 0.0947 µM (≈ 0.0392 µg/mL) | 0.0947 µM (≈ 0.0392 µg/mL) | 0.047 µM (≈ 0.0195 µg/mL) | 0.4 µg/mL | 0.05 µg/mL
3 | COCC(O)C(O)C(O)C(=O)c1c(C)cc2c(c1O)C(=O)c1c(O)cc(C)c3c1c-2c(O)c1c(O)c(C(C)=O)ccc13 (stereo not drawn) [Compound 2, clostrubin B] |  |  |  |  |  |  |  |  |  |  |  |  |  |  | 0.542 µM (≈ 0.312 µg/mL) | 0.271 µM (≈ 0.156 µg/mL) | 0.542 µM (≈ 0.312 µg/mL) |  | 
